Test results as given in PubChem BioAssay (NCI).
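Following 48 hours of exposure in 96-well plates, responses at five concentrations were used to interpolate endpoints linearly. TGI is the concentration that stops growth completely.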

Key:
Assay in all cases: NCI anticancer screen, dose series, 48 h
UACC-62 melanoma = test system: UACC-62 melanoma
MOLT-4 leukemia = test system: MOLT-4 leukemia
SK-MEL-5 melanoma = test system: SK-MEL-5 melanoma
OVCAR-3 ovarian = test system: OVCAR-3 ovarian
SR leukemia = test system: SR leukemia
OVCAR-8 ovarian = test system: OVCAR-8 ovarian
COLO 205 colon = test system: COLO 205 colon
K-562 leukemia = test system: K-562 leukemia
SF-295 CNS = test system: SF-295 CNS
EKVX NSCLC = test system: EKVX NSCLC
NCI/ADR-RES ovarian = test system: NCI/ADR-RES ovarian
PC-3 prostate = test system: PC-3 prostate
BT-549 breast = test system: BT-549 breast

CC(=O)OC1CC2C(C)(C)OC(=O)CC(OC(C)=O)[C@]2(C)C2CCC3(C)C(=CCC3[C@H]3COC(=O)C3)[C@]12C (some centres not stated)
TGI (UACC-62 melanoma): > 100 µM | TGI (MOLT-4 leukemia): 89.5 µM | TGI (SK-MEL-5 melanoma): > 100 µM | TGI (OVCAR-3 ovarian): > 100 µM | TGI (SR leukemia): 78.1 µM | TGI (OVCAR-8 ovarian): > 100 µM | TGI (COLO 205 colon): > 100 µM | TGI (K-562 leukemia): > 100 µM | TGI (SF-295 CNS): > 100 µM | TGI (EKVX NSCLC): > 100 µM

NC1=NS(=O)(=O)Nc2nc(-c3ccc([N+](=O)[O-])cc3)[nH]c21
TGI (UACC-62 melanoma): > 100 µM | TGI (MOLT-4 leukemia): > 100 µM | TGI (SK-MEL-5 melanoma): > 100 µM | TGI (OVCAR-3 ovarian): > 100 µM | TGI (SR leukemia): > 100 µM | TGI (OVCAR-8 ovarian): > 100 µM | TGI (COLO 205 colon): > 100 µM | TGI (K-562 leukemia): > 100 µM | TGI (SF-295 CNS): > 100 µM

O=C(Cc1ccccc1)NN1C(=O)/C(=C\c2cccc(O)c2)SC1=Nc1ccccc1
TGI (NCI/ADR-RES ovarian): > 100 µM | TGI (UACC-62 melanoma): > 100 µM | TGI (SK-MEL-5 melanoma): > 100 µM | TGI (OVCAR-3 ovarian): > 100 µM | TGI (OVCAR-8 ovarian): > 100 µM | TGI (COLO 205 colon): > 100 µM | TGI (SF-295 CNS): > 100 µM | TGI (EKVX NSCLC): > 100 µM

CN1NC(=Nc2ccccc2)Sc2c1cnn(-c1ccccc1)c2=O
TGI (UACC-62 melanoma): > 100 µM | TGI (MOLT-4 leukemia): > 100 µM | TGI (OVCAR-3 ovarian): 90.6 µM | TGI (OVCAR-8 ovarian): > 100 µM | TGI (COLO 205 colon): > 100 µM | TGI (K-562 leukemia): > 100 µM | TGI (SF-295 CNS): > 100 µM | TGI (EKVX NSCLC): > 100 µM

CC(C)C(=O)/C=C/c1ccc(Br)cc1
TGI (UACC-62 melanoma): 28 µM | TGI (MOLT-4 leukemia): 95.9 µM | TGI (SK-MEL-5 melanoma): 26.6 µM | TGI (OVCAR-3 ovarian): 27.3 µM | TGI (SR leukemia): 53.6 µM | TGI (OVCAR-8 ovarian): 62.9 µM | TGI (COLO 205 colon): 56.1 µM | TGI (K-562 leukemia): > 100 µM | TGI (SF-295 CNS): 29.9 µM | TGI (EKVX NSCLC): 50.9 µM

COC(=O)OCC1OC(N2C(=O)NC(=O)C(Br)C2N=[N+]=[N-])CC1OC(=O)OC (configuration not stated)
TGI (UACC-62 melanoma): > 100 µM | TGI (SK-MEL-5 melanoma): > 100 µM | TGI (OVCAR-3 ovarian): > 100 µM | TGI (OVCAR-8 ovarian): > 100 µM | TGI (COLO 205 colon): > 100 µM | TGI (SF-295 CNS): > 100 µM

COC(=O)[C@@H]1CCCN1CCN1CCC[C@H]1C(=O)OC
TGI (NCI/ADR-RES ovarian): > 100 µM | TGI (UACC-62 melanoma): > 100 µM | TGI (MOLT-4 leukemia): > 100 µM | TGI (SK-MEL-5 melanoma): > 100 µM | TGI (PC-3 prostate): > 100 µM | TGI (OVCAR-3 ovarian): > 100 µM | TGI (SR leukemia): 86.6 µM | TGI (OVCAR-8 ovarian): > 100 µM | TGI (COLO 205 colon): > 100 µM | TGI (K-562 leukemia): > 100 µM | TGI (SF-295 CNS): > 100 µM

O=C(Cc1ccccc1)NN1C(=O)C(Cl)C1c1ccc(O)cc1 (configuration not stated)
TGI (UACC-62 melanoma): > 100 µM | TGI (MOLT-4 leukemia): > 100 µM | TGI (SK-MEL-5 melanoma): > 100 µM | TGI (OVCAR-3 ovarian): > 100 µM | TGI (SR leukemia): > 100 µM | TGI (OVCAR-8 ovarian): > 100 µM | TGI (COLO 205 colon): > 100 µM | TGI (K-562 leukemia): > 100 µM | TGI (SF-295 CNS): > 100 µM | TGI (EKVX NSCLC): > 100 µM

O=C1Nc2c(ccc(Cl)c2I)C1=O
TGI (UACC-62 melanoma): 33.8 µM | TGI (MOLT-4 leukemia): 40.1 µM | TGI (SK-MEL-5 melanoma): 29.5 µM | TGI (OVCAR-3 ovarian): 55.7 µM | TGI (SR leukemia): 42.2 µM | TGI (OVCAR-8 ovarian): 76.7 µM | TGI (COLO 205 colon): 30.8 µM | TGI (K-562 leukemia): 73.2 µM | TGI (SF-295 CNS): 36.5 µM | TGI (EKVX NSCLC): 36.8 µM

O=C1c2ccccc2CCCCCCCCCCC12OCCCO2
TGI (UACC-62 melanoma): > 100 µM | TGI (MOLT-4 leukemia): 43.8 µM | TGI (SK-MEL-5 melanoma): 83.8 µM | TGI (OVCAR-3 ovarian): > 100 µM | TGI (OVCAR-8 ovarian): > 100 µM | TGI (COLO 205 colon): 38.1 µM | TGI (K-562 leukemia): > 100 µM | TGI (SF-295 CNS): > 100 µM

O=C1NC(N/N=C/C(O)C(O)C(O)CO)=N/C1=C\c1ccco1 (configuration not stated)
TGI (NCI/ADR-RES ovarian): > 100 µM | TGI (UACC-62 melanoma): > 100 µM | TGI (MOLT-4 leukemia): > 100 µM | TGI (SK-MEL-5 melanoma): > 100 µM | TGI (OVCAR-3 ovarian): > 100 µM | TGI (OVCAR-8 ovarian): > 100 µM | TGI (COLO 205 colon): > 100 µM | TGI (K-562 leukemia): > 100 µM | TGI (BT-549 breast): > 100 µM | TGI (SF-295 CNS): > 100 µM | TGI (EKVX NSCLC): > 100 µM

CC(=O)C1=C(C)NC2C=CC=CN12 (configuration not stated)
TGI (UACC-62 melanoma): > 100 µM | TGI (MOLT-4 leukemia): > 100 µM | TGI (SK-MEL-5 melanoma): > 100 µM | TGI (OVCAR-3 ovarian): > 100 µM | TGI (SR leukemia): > 100 µM | TGI (OVCAR-8 ovarian): > 100 µM | TGI (COLO 205 colon): > 100 µM | TGI (K-562 leukemia): > 100 µM | TGI (SF-295 CNS): > 100 µM | TGI (EKVX NSCLC): > 100 µM

COC(=O)C1=C2SCc3cccc(c3)CSC3=C(C(=O)OC)SC(=C(S2)S1)S3
TGI (UACC-62 melanoma): > 100 µM | TGI (MOLT-4 leukemia): > 100 µM | TGI (SK-MEL-5 melanoma): > 100 µM | TGI (PC-3 prostate): > 100 µM | TGI (OVCAR-3 ovarian): > 100 µM | TGI (COLO 205 colon): > 100 µM | TGI (K-562 leukemia): > 100 µM | TGI (SF-295 CNS): > 100 µM

CC1=COC(C)(C=C(C#N)C#N)CC1 (configuration not stated)
TGI (NCI/ADR-RES ovarian): > 100 µM | TGI (UACC-62 melanoma): > 100 µM | TGI (MOLT-4 leukemia): > 100 µM | TGI (SK-MEL-5 melanoma): > 100 µM | TGI (SR leukemia): > 100 µM | TGI (OVCAR-8 ovarian): > 100 µM | TGI (COLO 205 colon): > 100 µM | TGI (K-562 leukemia): > 100 µM | TGI (SF-295 CNS): > 100 µM | TGI (EKVX NSCLC): > 100 µM

Cc1cn(C2CC(n3cc(Cn4cc(Br)c(=O)[nH]c4=O)nn3)C(CO)O2)c(=O)[nH]c1=O (configuration not stated)
TGI (NCI/ADR-RES ovarian): > 100 µM | TGI (UACC-62 melanoma): > 100 µM | TGI (MOLT-4 leukemia): > 100 µM | TGI (SK-MEL-5 melanoma): > 100 µM | TGI (PC-3 prostate): > 100 µM | TGI (OVCAR-3 ovarian): > 100 µM | TGI (OVCAR-8 ovarian): > 100 µM | TGI (COLO 205 colon): > 100 µM | TGI (BT-549 breast): > 100 µM | TGI (SF-295 CNS): > 100 µM | TGI (EKVX NSCLC): > 100 µM

C1CCC2C(C1)CCCC2NC1=NCCO1 (configuration not stated)
TGI (NCI/ADR-RES ovarian): > 100 µM | TGI (UACC-62 melanoma): > 100 µM | TGI (MOLT-4 leukemia): > 100 µM | TGI (SK-MEL-5 melanoma): > 100 µM | TGI (PC-3 prostate): > 100 µM | TGI (OVCAR-3 ovarian): > 100 µM | TGI (SR leukemia): > 100 µM | TGI (OVCAR-8 ovarian): > 100 µM | TGI (COLO 205 colon): > 100 µM | TGI (K-562 leukemia): > 100 µM | TGI (SF-295 CNS): > 100 µM | TGI (EKVX NSCLC): > 100 µM
